Measurements published in patent US8324197B2, “Transplatinum complexes with N2O2 donor sets as cytotoxic and antitumor agents” (Virginia Commonwealth University, priority 2005, dated 2012).
Where two headings read alike, the source gives them in different places. Marks after values point to notes of the source that are not given here.

What was measured:
[1] = Initial hydrolysis of TPA carboxylates monitored by HPLC at 37° C.; format: physicochemical; conditions: H2O; for k1, initial hydrolysis rate constant: I=0.02 M; for hydrolysis occurring after 9 h: HPLC
Procedure: The slowest initial hydrolysis rate was found for complex 2c t-[Pt(OAc)2(NH3)(2-pic)], with just 4% hydrolysis occurring after 9 h. The hydrolysis of the formate complex 4f was the fastest, with 24% hydrolysis occurring after 9 h. The hydrolysis rates of the acetate complexes followed the pattern 2c<4c<3c. […] Thus, hydrolysis of the acetate complexes is slowed by an approximate order of magnitude compared to their direct chloro analogs but there is little difference in the present case between 3- and 4-picoline. Steric hindrance therefore predominates over the electronic effects of the methyl group. In the case of the chloride complexes, the 3-pic directs less electron density to the platinum rendering it less nucleophilic relative to the 2-pic and 4-pic. 14 We observe the same trend in the acetate complexes, but the effect is lessened due to the carboxylate group being a weak ligand, with a low trans influence and trans effect.^11

[2] = Solubility of TPA carboxylates, Example 6; format: physicochemical; conditions: aqueous; table title ambient temperature, text 37° C.
[3] = corresponding diaqua complex; other compounds of the series 2-4c given for comparison (refs 11, 14); cited from earlier work
[4] = cited from earlier work; for k1, first hydrolysis step to the monoaqua complex: analogous dichloride complexes, I=0.1 M
[5] = cited from earlier work; for k1, rate constant for the first aquation step: literature values of other platinum compounds
CH1 = assay: Growth inhibition in human ovarian cancer cell line panel, 96 h exposure; format: cell-based; conditions: for CH1 RF: RF = (IC50 Resistant)/(IC50 Sensitive)
Procedure: (§1) It is noteworthy that the acetate compounds maintain cytotoxicity with low resistance factors in all cases. The trans-[Pt(OAc)2(NH3)2] compound is also very water-soluble but the cytotoxicity of >100 μM confirms the requirement for a planar amine to enhance cytotoxicity in the trans geometry.

41M = assay: as above; format: cell-based; conditions: for 41M RF: RF = (IC50 Resistant)/(IC50 Sensitive)
Procedure: as §1

[6] = Aqueous solubility of TPA-acetate complexes (sequential addition of water); format: physicochemical; conditions: ambient temperature
Procedure: (§2) The aqueous solubility of the acetate compounds and the acid dissociation constants of the corresponding aqua species are given in Table 1. Use of acetates enhances aqueous solubility which is dependent on the exact nature of the donor ligands. The pKa values were determined by potentiometric titration of solutions of trans-[Pt(H2O)2(L)(L′)]^2+ (formed by the dissolution of the isolated trans-[Pt(NO3)2(L)(L′)]) with NaOH. […] (X=2,3,4-Me).^30

[7] = pKa of corresponding TPA diaqua complexes by potentiometric titration with NaOH; format: physicochemical; conditions: corresponding diaqua complex trans-[Pt(OH2)2(L)(L′)], ambient temperature
Procedure: as §2

[8] = system: ovarian cancer cell line panel; assay: Cytotoxicity in ovarian cancer cell line panel (cell line not specified); format: cell-based, human
Procedure: as §1

A2780 = assay: Growth inhibition in human ovarian cancer cell line panel, 96 h exposure; format: cell-based; conditions: for A2780 RF: RF = (IC50 Resistant)/(IC50 Sensitive)
Procedure: as §1

[9] = literature; cited from earlier work

For `Cc1ccncc1.N.O=C(CO)[O][Pt][O]C(=O)CO` [4d, trans-[Pt(OAcOH)2(NH3)(4-pic)]], which “k1, initial hydrolysis rate constant” value [1] is on record?
Its value is 5.61e-06 s⁻¹.

Which results are given for `CC(=O)[O][Pt][O]C(C)=O.Cc1ccncc1.N` [4c]?
k1, initial hydrolysis rate constant [1]: 3.26e-06 s⁻¹; Solubility (mg/mL), TPA Acetates [2]: 13.2 mg/mL; pKa1 [3]: 3.94; pKa2 [3]: 6.88

With `Cc1cccnc1.N.[Cl][Pt][Cl]` [3-pic] as the compound, how does the “k1, first hydrolysis step to the monoaqua complex” value (from here on “k1, first hydrolysis step”) [4] read?
Its value is 0.000127 s⁻¹.

With `CC(=O)[O-].CC(=O)[O-].Cc1ccccn1.N.[Pt+2]` [2c, trans-[Pt(OAc)2(NH3)(2-pic)]] as the compound, how does the “hydrolysis occurring after 9 h” value [1] read?
The value was 4%.

And the “k1, initial hydrolysis rate constant” value [1]?
Its value is 1.07e-06 s⁻¹.

What about the “Solubility (mg/mL), TPA Acetates” value [2] of the same compound?
Its value is 10 mg/mL.

And the pKa1 [3]?
The pKa1 was 4.03.

What about the pKa2 [3] of the same compound?
Its pKa2 is 7.1.

Which results are given for `N.N.[Cl][Pt][Cl]` [Cisplatin, cis-[PtCl2(NH3)2], reference compound]?
k1, rate constant for the first aquation step [5]: 5.18e-05 s⁻¹; IC50 (CH1): 0.1 µM; CH1 RF (CH1): (6.7); IC50 (41M): 1.4 µM; 41M RF (41M): (6.1); hydrolysis rate ([4]; at 20° C., literature): 5.18e-05 s⁻¹

Which results are given for `CC(=O)[O][Pt][O]C(C)=O.N.N` [trans-[Pt(OAc)2(NH3)2]]?
Solubility [6]: 21 mg/mL; pKa1 [7]: 4.0^b; pKa2 [7]: 7.08; IC50 [8]: > 100 µM

For `CCC[NH][Pt]([NH]CCC)([O]C(=O)CCl)[O]C(=O)CCl` [cis-[Pt(PrNH2)2(ClCH2CO2)2]], which “rate constant of substitution by water of the first carboxylate ligand” value ([5]; cis carboxylate complex, literature) is on record?
The value was 4.38e-05 s⁻¹.

Which “k1, first hydrolysis step” value [4] does the source give for `Cc1ccccn1.N.[Cl][Pt][Cl]` [2-pic] here?
The value was 2.6e-05 s⁻¹.

For `Cc1ccncc1.N.[Cl][Pt][Cl]` [4-pic], which “k1, first hydrolysis step” value [4] is on record?
The value was 5.2e-05 s⁻¹.

With `Cc1ccncc1.N.O=C([O-])C(F)(F)F.O=C([O-])C(F)(F)F.[Pt+2]` [4g, trans-[Pt(Tfa)2(NH3)(4-pic)]] as the compound, how does the “Solubility (mg/mL), TPA Substituted Carboxylates” value [2] read?
The value was “Insoluble”.

With `CC(=O)[O][Pt][O]C(C)=O.Cc1cccnc1.N` [3c] as the compound, how does the “k1, initial hydrolysis rate constant” value [1] read?
Its value is 3.52e-06 s⁻¹.

What about the “Solubility (mg/mL), TPA Acetates” value [2] of the same compound?
Its value is 11.4 mg/mL.

What about the pKa1 [3] of the same compound?
The pKa1 was 3.97.

What about the pKa2 [3] of the same compound?
The pKa2 was 6.78.

Which “hydrolysis occurring after 9 h” value [1] does the source give for trans-[Pt(OAcCl)2(NH3)(4-pic)] [4f] here?
The value was 24%.

And the “Solubility (mg/mL), TPA Substituted Carboxylates” value [2]?
Its value is 0.29 mg/mL.

Which results are given for “trans-[diacetato(ammine)(quinoline)platinum(II)] [trans-[Pt(OAc)2(NH3)(quin)]]”?
IC50 (CH1): 17 µM; CH1 RF (CH1): (0.48); IC50 (41M): 22 µM; 41M RF (41M): (1.00); IC50 (A2780): 13 µM; A2780 RF (A2780): (1.46)

For `[NH2][Pt]1([NH2])[O]C(=O)C2(CCC2)C(=O)[O]1` [Carboplatin, cis-[Pt(CBDCA)(NH3)2]], which hydrolysis rate constant ([5]; aqueous solution) is on record?
Its hydrolysis rate constant is under 5e-09 s⁻¹.

What about the “k1, rate constant for the first aquation step” value [5] of the same compound?
The value was <10^−8 s^−1.

What about the hydrolysis rate ([5]; phosphate buffer at 310 K) of the same compound?
Its hydrolysis rate is 7.2e-07 s⁻¹.

For “trans-[diacetatobis(pyridine)platinum(II)] [trans-[Pt(OAc)2(py)2]]”, which IC50 (CH1) is on record?
Its IC50 is 19 µM.

What about the “CH1 RF” value (CH1) of the same compound?
Its value is “(0.22)”.

What about the IC50 (41M) of the same compound?
Its IC50 is 14 µM.

And the “41M RF” value (41M)?
The value was “(0.32)”.

And the IC50 (A2780)?
The IC50 was 12.8 µM.

What about the “A2780 RF” value (A2780) of the same compound?
Its value is “(0.90)”.

With `Cc1ccncc1.N.O=C([O-])c1ccccc1.O=C([O-])c1ccccc1.[Pt+2]` [4h, trans-[Pt(OBz)2(NH3)(4-pic)]] as the compound, how does the “Solubility (mg/mL), TPA Substituted Carboxylates” value [2] read?
The value was “Insoluble”.

Which “k1, rate constant for the first aquation step” value [5] does the source give for `NCCNCCN.[Cl-].[Pt+2]` [[PtCl(dien)]+] here?
Its value is “(6.50 ± 0.13) × 10^−5 s^−1”.

What does the source list for `N.N.[Cl][Pt+2][Cl]` [Transplatin, trans-[PtCl2(NH3)2]]?
k1, rate constant for the first aquation step [5]: 0.00019 s⁻¹; time to complete reaction with N-AcMet [9]: ≤ 5 h
